Read-outs that look alike come from different tables or passages of the source. Marks after values point to notes of the source that are not given here.
Experiments:
[1] = system: righting reflex; experiment: Hypnotic effect, loss of righting reflex; type: in vivo; settings: mice, positive control, 40 mg/kg (Table 9), 10 animals
[2] = system: spontaneous activities of mice; settings: both, mouse, in vivo, 3 mg/kg
[3] = system: motor balance and coordination; settings: both, mouse, in vivo, 3 mg/kg
Method: Motor balance and coordination were tested using a modified beam walking method. Mice were put on a smooth beam tilted at an angle of 70 degree. Mice passed the test by standing on the beam for 0.5 minute without falling off. All the mice were pre-screened before the studies, and a total of 110 mice were selected by passing the beam test in 3 consecutive tries. The selected mice were divided into 11 groups with 10 mice in each group (half male and half female). At certain time points after drug administration, mice were tested on the beam for 3 consecutive times. A mouse was counted as failing to the test if it fell off the beam for 2 or more times.
The dose volume was 0.2 mL/10 gram and infusion rate was 0.2 mL/10 seconds. Chlorpromazine was used as the positive control.

[4] = system: Remefline-induced convulsion; experiment: Anticonvulsant effects on Remefline-induced convulsion in mice; type: in vivo; settings: 2 mg/kg, positive control
Method: In one experiment, the anticonvulsant effects of levo- and dextro-ornidazole against drug-induced convulsions in mice were compared. In four different animal convulsion models, mice were treated by four different seizure-inducing agents, including Remefline, Strychnine, isoniazid, thiosemicarbazide. Levo- or dextro-ornidazole was administered along with the seizure-inducing agents, and several outcomes were measured, including rate of convulsion, mortality rate, time to convulsion (latency), and time to death. Diazepam was used as a positive anticonvulsant control.
(§1) Mice are randomized into 4 treatment groups (n=10 with half male and half female): dextro- or levo-ornidazole (dosage 40, 80, 160 mg/kg), vehicle control group (15% propylene glycol in 0.9% sodium chloride, 20 mL/kg) and the positive control group. Animals are treated with known convulsion-inducing agents, followed by the drug or vehicle control given intravenously. The dose volume is 20 mL/kg with an infusion rate of 0.2 mL/10 seconds.

[5] = system: Strychnine-induced convulsion; experiment: Anticonvulsant effects on Strychnine-induced convulsion in mice; type: in vivo; settings: 2 mg/kg, positive control, n=10
Method: as §1, with “seconds. The anticonvulsant effects are observed and recorded (see Tables 2-6).” for “seconds.”

[6] = system: isoniazid-induced convulsion; experiment: Anticonvulsant effects on isoniazid-induced convulsion in mice; type: in vivo; settings: 2 mg/kg, positive control, Mean ± SD, n=10
Method: as §1, with “seconds. The anticonvulsant effects are observed and recorded (see Tables 2-6).” for “seconds.”

[7] = system: thiosemicarbazide-induced convulsion; experiment: Anticonvulsant effects on thiosemicarbazide-induced convulsion in mice; type: in vivo; settings: 2 mg/kg, positive control, n=10
Method: as §1, with “seconds. The anticonvulsant effects are observed and recorded (see Tables 2-6).” for “seconds.”

In the case of `CCCC(C)C1(CC)C(=O)NC(=O)NC1=O` (stereo not shown) [Pentobarbital, Sodium pentobarbital], the “Number of animals Loss of Righting Flex 30 min Post-dose” value [1] is reported as 10**.

In the case of `CN(C)CCCN1c2ccccc2Sc2ccc(Cl)cc21` [Chlorpromazine], the “Spontaneous Activities (per 5 min)” value ([2]; 0.5 h) is reported as 5 ± 2 per 5 min, the “Spontaneous Activities (per 5 min)” value ([2]; 1 h) is reported as 6 ± 4 per 5 min and the “Spontaneous Activities (per 5 min)” value ([2]; 2 h) is reported as 13 ± 6 per 5 min. The “Spontaneous Activities (per 5 min)” value ([2]; 3 h) was 21 ± 9 per 5 min, the “Spontaneous Activities (per 5 min)” value ([2]; 4 h) was 35 ± 9 per 5 min and the “Number of Animals Fall Off” value ([3]; 0.5 h) was 10. The “Number of Animals Fall Off” value ([3]; 1 h) was 10, the “Number of Animals Fall Off” value ([3]; 2 h) was 10 and the “Number of Animals Fall Off” value ([3]; 3 h) was 9. The “Number of Animals Fall Off” value ([3]; 4 h) was 5.

With `CN1C(=O)CN=C(c2ccccc2)c2cc(Cl)ccc21` [Diazepam] the “Rate of Convulsion” value ([4]; n=10) was 0/10**, the “Mortality Rate” value ([4]; n=10, 2 mg/kg) was 0/10** and the “Mortality Rate” value ([4]; n=10, listed as diazepam) was 0/10. For the same compound, the “Mortality Rate” value [5] was 0/10**, the “Convulsion Latency” value [6] was 57.4 ± 9.7 min and the “Time to Death” value [6] was 79.0 ± 12.9 min. The “Mortality Rate” value [7] was 0/10** and the “Rate of Convulsion” value [7] was 2/10**.
